Data from ChEMBL document CHEMBL1140725, “Pradefovir: a prodrug that targets adefovir to the liver for the treatment of hepatitis B” (J Med Chem, 2008).

How the values were obtained:
[1] = system: Rattus norvegicus; assay: Prodrug activation in Sprague-Dawley rat liver hepatocytes assessed as formation of adefovir diphosphate at 30 mg/kg, po after 8 hrs; format: organism-based, Hepatocyte; parameters: dose 30 mg/kg, route oral
[2] = system: Hepatocyte; assay: Prodrug activation in intracellular rat hepatocytes assessed as formation of adefovir diphosphate after 2 hrs; format: cell-based
[3] = system: Liver microsomes; assay: Prodrug activation in Wistar rat liver microsome assessed as formation of adefovir at 250 uM after 5 mins
[4] = system: Rattus norvegicus; assay: Cmax in rat liver at 30 mg/kg, po; format: ADME, organism-based; parameters: dose 30 mg/kg, route oral; settings: in vivo
[5] = system: Rattus norvegicus; assay: Biodistribution in rat small intestine at 30 mg/kg, po after 24 hrs; format: ADME, organism-based; parameters: dose 30 mg/kg, route oral; settings: in vivo
[6] = system: Intestine; assay: Selectivity index, ratio of biodistribution in rat liver to intestine at 30 mg/kg, po after 24 hrs; format: organism-based; parameters: dose 30 mg/kg, route oral; settings: in vivo
[7] = system: Liver; assay: Biodistribution in rat liver at 30 mg/kg, po after 24 hrs; format: ADME, organism-based; parameters: dose 30 mg/kg, route oral; settings: in vivo
[8] = system: Kidney; assay: Biodistribution in rat kidney at 30 mg/kg, po after 24 hrs; format: ADME, organism-based; parameters: dose 30 mg/kg, route oral; settings: in vivo
[9] = system: Liver; assay: Selectivity index, ratio of biodistribution in rat liver to kidney at 30 mg/kg, po after 24 hrs; format: organism-based; parameters: dose 30 mg/kg, route oral; settings: in vivo
[10] = system: Plasma; assay: Biodistribution in rat plasma at 30 mg/kg, po after 24 hrs; format: ADME, organism-based; parameters: dose 30 mg/kg, route oral; settings: in vivo

Nc1ncnc2c1ncn2CCOCP1(=O)OCCC(c2cc(F)cc(F)c2)O1 (centres undefined)
Activity [1]: 2.2 nmol·h/g | Activity [2]: 61.9 nmol·h/g | Activity [3]: 1.5 nmol/min/mg

Nc1ncnc2c1ncn2CCOCP1(=O)OCCC(c2cccc(Cl)c2Cl)O1 (centres undefined)
Activity [3]: < 4.5 nmol/min/mg

Nc1ncnc2c1ncn2CCOCP1(=O)OCCC(c2ccc(Cl)cc2Cl)O1 (centres undefined)
Activity [2]: 9.8 nmol·h/g | Activity [3]: 2.5 nmol/min/mg

CS(=O)(=O)O.Nc1ncnc2c1ncn2CCOCP1(=O)OCCC(c2cccc(Cl)c2)O1 (centres undefined)
Cmax [4]: 19.6 nmol/g

Nc1ncnc2c1ncn2CCOCP1(=O)OCCC(c2ccccc2)O1 (centres undefined)
Activity [1]: 0.6 nmol·h/g | Activity [2]: 149.1 nmol·h/g | Activity [3]: 2.9 nmol/min/mg

Nc1ncnc2c1ncn2CCOCP1(=O)OCCC(c2ccccc2Cl)O1 (centres undefined)
Activity [3]: 6.2 nmol/min/mg

Nc1ncnc2c1ncn2CCOCP1(=O)OCCC(c2ccccc2Br)O1 (centres undefined)
Activity [1]: 7.1 nmol·h/g | Activity [2]: 43.1 nmol·h/g | Activity [3]: 3.5 nmol/min/mg

Nc1ncnc2c1ncn2CCOCP1(=O)OCCC(c2cc(Cl)cc(Cl)c2)O1 (centres undefined)
Activity [1]: 2 nmol·h/g | Activity [2]: 64.4 nmol·h/g | Activity [3]: 1.9 nmol/min/mg

COc1ccc(Br)cc1C1CCOP(=O)(COCCn2cnc3c(N)ncnc32)O1 (centres undefined)
Activity [3]: < 1 nmol/min/mg

Cc1cc(C)cc(C2CCOP(=O)(COCCn3cnc4c(N)ncnc43)O2)c1 (centres undefined)
Activity [2]: 40.7 nmol·h/g | Activity [3]: 1.6 nmol/min/mg

CC(C)(C)c1ccc(C2CCOP(=O)(COCCn3cnc4c(N)ncnc43)O2)cc1 (centres undefined)
Activity [2]: 0 nmol·h/g | Activity [3]: 0.5 nmol/min/mg

Nc1ncnc2c1ncn2CCOCP1(=O)OCCC(c2cccc(F)c2)O1 (centres undefined)
Activity [3]: < 1 nmol/min/mg

Nc1ncnc2c1ncn2CCOCP1(=O)OCCC(c2cccc(Br)c2)O1 (centres undefined)
Activity [1]: 2.2 nmol·h/g | Activity [2]: 70.3 nmol·h/g | Activity [3]: 1.9 nmol/min/mg

COc1ccc(C2CCOP(=O)(COCCn3cnc4c(N)ncnc43)O2)cc1Br (centres undefined)
Activity [2]: < 0.5 nmol·h/g | Activity [3]: 1.1 nmol/min/mg

Nc1ncnc2c1ncn2CCOCP1(=O)OCCC(c2cccnc2)O1 (centres undefined)
Activity [2]: 26.7 nmol·h/g | Activity [3]: 2.9 nmol/min/mg

Nc1ncnc2c1ncn2CCOCP1(=O)OCCC(c2ccoc2)O1 (centres undefined)
Activity [2]: 0 nmol·h/g | Activity [3]: 4 nmol/min/mg

Nc1ncnc2c1ncn2CCOCP1(=O)OCCC(c2ccc(F)cc2F)O1 (centres undefined)
Activity [3]: 2.5 nmol/min/mg

Nc1ncnc2c1ncn2CCOC[P@]1(=O)OCC[C@H](c2cccc(Cl)c2)O1
Cmax [4]: 5.4 nmol/g | Activity [3]: 0.193 nmol/min/mg

Nc1ncnc2c1ncn2CCOCP1(=O)OCCC(c2c(Cl)cccc2Cl)O1 (centres undefined)
Activity [3]: < 1 nmol/min/mg

Nc1ncnc2c1ncn2CCOCP1(=O)OCCC(c2ccccc2F)O1 (centres undefined)
Activity [3]: < 1 nmol/min/mg

COc1ccc(Br)c(C2CCOP(=O)(COCCn3cnc4c(N)ncnc43)O2)c1 (centres undefined)
Activity [2]: < 0.5 nmol·h/g | Activity [3]: 4 nmol/min/mg

Nc1ncnc2c1ncn2CCOCP1(=O)OCCC(c2ccncc2)O1 (centres undefined)
Activity [1]: 1.2 nmol·h/g | Activity [2]: 106.2 nmol·h/g | Activity [3]: 4.5 nmol/min/mg

Nc1ncnc2c1ncn2CCOCP1(=O)OCCC(c2ccsc2)O1 (centres undefined)
Activity [2]: 0 nmol·h/g | Activity [3]: 0.5 nmol/min/mg

Nc1ncnc2c1ncn2CCOCP1(=O)OCCC(c2cc(F)ccc2F)O1 (centres undefined)
Activity [3]: 2.3 nmol/min/mg

Nc1ncnc2c1ncn2CCOCP1(=O)OCCC(c2c(F)cccc2F)O1 (centres undefined)
Activity [3]: 1.5 nmol/min/mg

Nc1ncnc2c1ncn2CCOCP1(=O)OCCC(c2ccc(Cl)c(Cl)c2)O1 (centres undefined)
Activity [2]: 6.2 nmol·h/g | Activity [3]: 1.5 nmol/min/mg

Nc1ncnc2c1ncn2CCOCP1(=O)OCCC(c2cccc(F)c2F)O1 (centres undefined)
Activity [3]: 6.3 nmol/min/mg

Nc1ncnc2c1ncn2CCOCP1(=O)OCCC(c2cccc(Cl)c2)O1 (cis isomer)
Drug uptake [5]: 118 nmol·h/g | Selectivity index [6]: 7.5 | Drug uptake [7]: 884 nmol·h/g | Cmax [4]: 8 nmol/g | Drug uptake [8]: 196 nmol·h/g | Selectivity index [9]: 4.5 | Activity [3]: 0.421 nmol/min/mg | Drug uptake [10]: 55 nmol·h/g

Nc1ncnc2c1ncn2CCOCP1(=O)OCCC(c2cccc(Cl)c2)O1 (stereo in doubt; 3h)
Activity [1]: 6.6 nmol·h/g | Activity [2]: 109.3 nmol·h/g | Activity [3]: 10.9 nmol/min/mg

Nc1ncnc2c1ncn2CCOCP1(=O)OCCC(c2cccc(Cl)c2)O1 (trans isomer)
Activity [3]: < 0.01 nmol/min/mg

CC(C)(C)C(=O)OCOP(=O)(COCCn1cnc2c(N)ncnc21)OCOC(=O)C(C)(C)C [ADEFOVIR DIPIVOXIL]
Drug uptake [5]: 3206 nmol·h/g | Selectivity index [6]: 0.08 | Drug uptake [7]: 284 nmol·h/g | Drug uptake [8]: 742 nmol·h/g | Selectivity index [9]: 0.4 | Drug uptake [10]: 34 nmol·h/g

Nc1ncnc2c1ncn2CCOC[P@@]1(=O)OCC[C@@H](c2cccc(Cl)c2)O1 [PRADEFOVIR]
Cmax [4]: 12.2 nmol/g | Activity [3]: 0.51 nmol/min/mg
